Laboratory results taken from patent US11331314B2, “Amine substituted triazole derivatives and uses thereof” (Bayer Pharma Aktiengesellschaft, priority 2017, dated 2022).

How the values were obtained:
human V2 receptor = target: T1, human V2 receptor (Homo sapiens, UniProt P30518); test: Cellular in vitro assay for determining vasopressin receptor activity, V2 receptor cell line (CRE-luciferase); type: cell-based; settings: CHO cell line transfected with the human V2 receptor; agonist [Arg8]-vasopressin at EC50 concentration; read-out: IC50 hV2
T1 construct: expressed in transfected cells; host or cells: CHO K1 (ATCC) expressing firefly luciferase under a CRE-responsive promoter
T1 sequence (P30518 whole entry): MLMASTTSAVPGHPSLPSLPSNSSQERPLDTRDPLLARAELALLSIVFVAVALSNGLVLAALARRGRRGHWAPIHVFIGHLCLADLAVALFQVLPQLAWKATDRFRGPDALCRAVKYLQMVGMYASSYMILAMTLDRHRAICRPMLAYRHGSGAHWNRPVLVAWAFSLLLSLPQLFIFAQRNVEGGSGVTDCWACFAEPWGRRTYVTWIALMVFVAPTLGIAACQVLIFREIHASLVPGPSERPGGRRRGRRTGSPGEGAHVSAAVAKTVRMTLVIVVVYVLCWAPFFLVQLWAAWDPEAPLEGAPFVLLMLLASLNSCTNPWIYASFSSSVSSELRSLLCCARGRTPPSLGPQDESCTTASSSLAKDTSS
Procedure: (§1) B-1. Cellular In Vitro Assay for Determining Vasopressin Receptor Activity
(§2) The identification of agonists and antagonists of the V1a and V2 vasopressin receptors from humans, rats and dogs as well as the quantification of the activity of the compounds of the invention is carried out using recombinant cell lines. These cell lines originally derive from a hamster's ovary epithelial cell (Chinese Hamster Ovary, CHO K1, ATCC: American Type Culture Collection, Manassas, Va. 20108, USA). The test cell lines constitutively express the human, rat or dog V1a or V2 receptors. In case of the Gαq-coupled V1a receptors, cells are also stably transfected with a modified form of the calcium-sensitive photoproteins aequorin (human and rat V1a) or obelin (dog V1a), which, after reconstitution with the cofactor coelenterazine, emit light when there are increases in free calcium concentrations [Rizzuto R, Simpson A W, Brini M, Pozzan T, Nature 358, 325-327 (1992); Illarionov B A, Bondar V S, Illarionova V A, Vysotski E S, Gene 153 (2), 273-274 (1995)]. The resulting vasopressin receptor cells react to stimulation of the recombinantly expressed V1a receptors by intracellular release of calcium ions, which can be quantified by the resulting photoprotein luminescence. The Gs-coupled V2 receptors are stably transfected into cell lines expressing the gene for firefly luciferase under control of a CRE-responsible promoter. Activation of V2 receptors induces the activation of the CRE-responsive promoter via cAMP increase, thereby inducing the expression of firefly luciferase. The light emitted by photoproteins of V1a cell lines as well as the light emitted by firefly luciferase of V2 cell lines corresponds to the activation or inhibition of the respective vasopressin receptor. The bioluminescence of the cell lines is detected using a suitable luminometer [Milligan G, Marshall F, Rees S, Trends in Pharmacological Sciences 17, 235-237 (1996)].
Vasopressin V2 Receptor Cell Lines:
On the day before the assay, the cells are plated out in culture medium (DMEM/F12, 2% FCS, 2 mM glutamine, 10 mM HEPES) in 384-well microtiter plates and kept in a cell incubator (96% humidity, 5% v/v CO2, 37° C.). On the day of the assay, test compounds in various concentrations and the agonist [Arg^8]-vasopressin at EC50 concentration are added together to the wells, and plates are incubated for 3 hours in a cell incubator. Upon addition of the cell lysis reagent Triton™ and the substrate luciferin, luminescence of firefly luciferase is measured in a luminometer.
(§3) Table 1A below lists individual IC50 values for the compounds of the invention (including racemic mixtures as well as separated enantiomers) that were obtained from cell lines transfected with the human V1a or V2 receptor: […]

human V1a receptor = human V1a receptor (Homo sapiens, UniProt P37288); test: Cellular in vitro assay for determining vasopressin receptor activity, V1a receptor cell line (photoprotein luminescence); type: cell-based; settings: for IC50: CHO cell line transfected with the human V1a receptor, agonist [Arg8]-vasopressin at EC50 concentration, read-out: IC50 hV1a; for ratio IC50 hV2/hV1a: selectivity ratio of the cellular IC50 values
Chain of human V1a receptor (P37288 whole entry): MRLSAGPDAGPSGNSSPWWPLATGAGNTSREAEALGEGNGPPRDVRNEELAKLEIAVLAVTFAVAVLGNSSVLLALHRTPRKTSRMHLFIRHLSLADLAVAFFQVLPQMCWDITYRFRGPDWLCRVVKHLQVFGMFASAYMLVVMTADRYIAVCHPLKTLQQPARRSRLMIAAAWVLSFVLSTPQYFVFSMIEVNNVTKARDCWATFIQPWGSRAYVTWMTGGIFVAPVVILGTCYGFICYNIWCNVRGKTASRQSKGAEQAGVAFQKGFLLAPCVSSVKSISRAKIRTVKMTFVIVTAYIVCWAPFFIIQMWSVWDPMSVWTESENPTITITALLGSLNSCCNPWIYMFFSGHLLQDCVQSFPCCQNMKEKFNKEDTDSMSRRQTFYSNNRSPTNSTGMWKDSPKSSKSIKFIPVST
Procedure: as §1, §2
Vasopressin V1a Receptor Cell Lines:
On the day before the assay, the cells are plated out in culture medium (DMEM/F12, 2% FCS, 2 mM glutamine, 10 mM HEPES, 5 μg/ml coelenterazine) in 384-well microtiter plates and kept in a cell incubator (96% humidity, 5% v/v CO2, 37° C.). On the day of the assay, test compounds in various concentrations are placed for 10 minutes in the wells of the microtiter plate before the agonist [Arg^8]-vasopressin at EC50 concentration is added. The resulting light signal is measured immediately in a luminometer.
as §3

| IC50 (human V2 receptor) | IC50 (human V1a receptor) | ratio IC50 hV2/hV1a (human V1a receptor) | Compound |
| --- | --- | --- | --- |
| 3.6 nM | 0.48 nM | 7.5 | NC(=O)C1CN(c2nc(Cn3nc(-c4ccc(Cl)cc4)n(C[C@H](O)C(F)(F)F)c3=O)nn2-c2ccccc2Cl)C1 [Example 74, 1-[1-(2-Chlorophenyl)-3-({3-(4-chlorophenyl)-5-oxo-4-[(2S)-3,3,3-trifluoro-2-hydroxypropyl]-4,5-dihydro-1H-1,2,4-triazol-1-yl}methyl)-1H-1,2,4-triazol-5-yl]azetidine-3-carboxamide] |
| 17.7 nM | 1.6 nM | 11.0 | O=c1n(Cc2nc(N3CC(F)(F)C3)n(-c3ccccc3Cl)n2)nc(-c2ccc(Cl)cc2)n1C[C@H](O)C(F)(F)F [Example 81, 5-(4-Chlorophenyl)-2-{[1-(2-chlorophenyl)-5-(3,3-difluoroazetidin-1-yl)-1H-1,2,4-triazol-3-yl]methyl}-4-[(2S)-3,3,3-trifluoro-2-hydroxypropyl]-2,4-dihydro-3H-1,2,4-triazol-3-one] |
| 84 nM | 10.7 nM | 7.9 | O=c1n(Cc2nc(N3CCNC(C(F)(F)F)C3)n(CCC(F)(F)F)n2)nc(-c2ccc(Cl)cc2)n1C[C@H](O)C(F)(F)F (single isomer, unassigned) [Example 108] |
| 145 nM | 1.9 nM | – | CC(C)(O)CNc1nc(Cn2nc(-c3ccc(Cl)cc3)n(C[C@H](O)C(F)(F)F)c2=O)nn1-c1ncccc1Cl [Example 98, 5-(4-Chlorophenyl)-2-({1-(3-chloropyridin-2-yl)-5-[(2-hydroxy-2-methylpropyl)amino]-1H-1,2,4-triazol-3-yl}methyl)-4-[(2S)-3,3,3-trifluoro-2-hydroxypropyl]-2,4-dihydro-3H-1,2,4-triazol-3-one] |
| 95.5 nM | 4.3 nM | 22.2 | CC(C)(N)CNc1nc(Cn2nc(-c3ccc(Cl)cc3)n(C[C@H](O)C(F)(F)F)c2=O)nn1-c1ccccc1 [Example 94, 2-({5-[(2-Amino-2-methylpropyl)amino]-1-phenyl-1H-1,2,4-triazol-3-yl}methyl)-5-(4-chlorophenyl)-4-[(2S)-3,3,3-trifluoro-2-hydroxypropyl]-2,4-dihydro-3H-1,2,4-triazol-3-one] |
| 3.8 nM | 0.64 nM | 6.0 | CC(C)(CNc1nc(Cn2nc(-c3ccc(Cl)cc3)n(C[C@H](O)C(F)(F)F)c2=O)nn1-c1ccccc1Cl)C(N)=O [Example 5, 3-{[1-(2-Chlorophenyl)-3-({3-(4-chlorophenyl)-5-oxo-4-[(2S)-3,3,3-trifluoro-2-hydroxypropyl]-4,5-dihydro-1H-1,2,4-triazol-1-yl}methyl)-1H-1,2,4-triazol-5-yl]amino}-2,2-dimethylpropanamide] |
| 5.85 nM | 0.96 nM | 6.1 | O=c1n(Cc2nc(N3CCC(O)(C(F)(F)F)C3)n(-c3ccccc3Cl)n2)nc(-c2ccc(Cl)cc2)n1C[C@H](O)C(F)(F)F (single isomer, unassigned) [Example 14] |
| 45 nM | 0.42 nM | 108.4 | CC1(C)CN(c2nc(Cn3nc(-c4ccc(Cl)cc4)n(C[C@H](O)C(F)(F)F)c3=O)nn2-c2ccccc2Cl)CCN1 [Example 76, 5-(4-Chlorophenyl)-2-{[1-(2-chlorophenyl)-5-(3,3-dimethylpiperazin-1-yl)-1H-1,2,4-triazol-3-yl]methyl}-4-[(2S)-3,3,3-trifluoro-2-hydroxypropyl]-2,4-dihydro-3H-1,2,4-triazol-3-one] |
| 2.2 nM | 0.4 nM | 5.6 | CC(C)(CNc1nc(Cn2nc(-c3ccc(Cl)cc3)n(C[C@H](O)C(F)(F)F)c2=O)nn1-c1ccccc1Cl)NS(C)(=O)=O [Example 26] |
| 360 nM | 37 nM | 9.7 | NC(=O)C1CN(c2nc(Cn3nc(-c4ccc(Cl)cc4)n(C[C@H](O)C(F)(F)F)c3=O)nn2CCC(F)(F)F)C1 [Example 113, 1-[3-({3-(4-Chlorophenyl)-5-oxo-4-[(2S)-3,3,3-trifluoro-2-hydroxypropyl]-4,5-dihydro-1H-1,2,4-triazol-1-yl}methyl)-1-(3,3,3-trifluoropropyl)-1H-1,2,4-triazol-5-yl]azetidine-3-carboxamide] |

Further lines, the compound ahead of its results:

| Compound | IC50 (human V2 receptor) | IC50 (human V1a receptor) | ratio IC50 hV2/hV1a (human V1a receptor) |
| --- | --- | --- | --- |
| NC(=O)[C@H]1CC(F)(F)CN1c1nc(Cn2nc(-c3ccc(Cl)cc3)n(C[C@H](O)C(F)(F)F)c2=O)nn1-c1ccccc1Cl [Example 10, 1-[1-(2-Chlorophenyl)-3-({3-(4-chlorophenyl)-5-oxo-4-[(2S)-3,3,3-trifluoro-2-hydroxypropyl]-4,5-dihydro-1H-1,2,4-triazol-1-yl}methyl)-1H-1,2,4-triazol-5-yl]-4,4-difluoro-D-prolinamide] | 18.2 nM | 0.63 nM | 29.2 |
| NC(=O)[C@H]1CCCN1c1nc(Cn2nc(-c3ccc(Cl)cc3)n(C[C@H](O)C(F)(F)F)c2=O)nn1-c1ccccc1Cl [Example 59, 1-[1-(2-Chlorophenyl)-3-({3-(4-chlorophenyl)-5-oxo-4-[(2S)-3,3,3-trifluoro-2-hydroxypropyl]-4,5-dihydro-1H-1,2,4-triazol-1-yl}methyl)-1H-1,2,4-triazol-5-yl]-D-prolinamide] | 39.5 nM | 2.3 nM | 17.2 |
| O=c1n(Cc2nc(NCC3(O)CCC3)n(-c3ccccc3Cl)n2)nc(-c2ccc(Cl)cc2)n1C[C@H](O)C(F)(F)F [Example 52, 5-(4-Chlorophenyl)-2-{[1-(2-chlorophenyl)-5-{[(1-hydroxycyclobutyl)methyl]amino}-1H-1,2,4-triazol-3-yl]methyl}-4-[(2S)-3,3,3-trifluoro-2-hydroxypropyl]-2,4-dihydro-3H-1,2,4-triazol-3-one] | 0.83 nM | 0.65 nM | 1.3 |
| O=C1CC(Nc2nc(Cn3nc(-c4ccc(Cl)cc4)n(C[C@H](O)C(F)(F)F)c3=O)nn2-c2ccccc2Cl)CN1 (mixture of isomers) [Example 69, 5-(4-Chlorophenyl)-2-{[1-(2-chlorophenyl)-5-{[5-oxopyrrolidin-3-yl]amino}-1H-1,2,4-triazol-3-yl]methyl}-4-[(2S)-3,3,3-trifluoro-2-hydroxypropyl]-2,4-dihydro-3H-1,2,4-triazol-3-one] | 4.35 nM | 1.05 nM | 4.2 |
| O=c1n(Cc2nc(NCC3(O)CCCNCC3)n(-c3ccccc3Cl)n2)nc(-c2ccc(Cl)cc2)n1C[C@H](O)C(F)(F)F (mixture of isomers) [Example 20] | 12 nM | 0.42 nM | 28.6 |
| NC(CNc1nc(Cn2nc(-c3ccc(Cl)cc3)n(C[C@H](O)C(F)(F)F)c2=O)nn1-c1ccccc1Cl)C(F)(F)F (single isomer, unassigned) [Example 8] | 1.69 nM | 0.31 nM | 5.5 |
| CC1(CNc2nc(Cn3nc(-c4ccc(Cl)cc4)n(C[C@H](O)C(F)(F)F)c3=O)nn2-c2ccccc2Cl)COC1 [Example 78, 5-(4-Chlorophenyl)-2-{[1-(2-chlorophenyl)-5-{[(3-methyloxetan-3-yl)methyl]amino}-1H-1,2,4-triazol-3-yl]methyl}-4-[(2S)-3,3,3-trifluoro-2-hydroxypropyl]-2,4-dihydro-3H-1,2,4-triazol-3-one] | 1.63 nM | 0.79 nM | 2.1 |
| NC(=O)[C@H]1CCN(c2nc(Cn3nc(-c4ccc(Cl)cc4)n(C[C@H](O)C(F)(F)F)c3=O)nn2-c2ccccc2Cl)C1 [Example 57, (3S)-1-[1-(2-Chlorophenyl)-3-({3-(4-chlorophenyl)-5-oxo-4-[(2S)-3,3,3-trifluoro-2-hydroxypropyl]-4,5-dihydro-1H-1,2,4-triazol-1-yl}methyl)-1H-1,2,4-triazol-5-yl]pyrrolidine-3-carboxamide] | 4.9 nM | 0.74 nM | 6.6 |
